Series [1] relates to targets incubated with WT1 peptides (EL-4) and WT1 positive tumor cells (TRAMP-C, BLK-SV40). Kind of series: CTL from mice immunized with WT1 peptides, chromium release assay. It counts as in vivo, B6 mice. As to conditions: for generation of peptide specific CTL following immunization: spleen cells stimulated in vitro with peptide; for generation of peptide specific CTL following immunization / lysis of WT1 positive tumor cells by peptide specific CTL: chromium release; for lysis of WT1 positive tumor cells by peptide specific CTL: WT1 positive tumor cell lines (TRAMP-C, BLK-SV40). As for the experimental part:
CTL were evaluated with a standard chromium release assay (Chen et al., Cancer Res. 54:1065-1070, 1994). 10^6 target cells were incubated at 37° C. with 150 μCi of sodium ^51Cr for 90 minutes, in the presence or absence of specific peptides. Cells were washed three times and resuspended in RPMI with 5% fetal bovine serum. For the assay, 10^4 51Cr-labeled target cells were incubated with different concentrations of effector cells in a final volume of 200 μl in U-bottomed 96-well plates. Supernatants were removed after 4 to 7 hours at 37° C., and the percentage specific lysis was determined by the formula: % specific lysis=100×(experimental release−spontaneous release)/(maximum release−spontaneous release).
P117-139, a peptide with motifs appropriate for binding to class I and class II MHC, was identified as described above using TSITES and BIMAS HLA peptide binding prediction analyses. Mice were immunized as described in Example 3. […] CTL were evaluated with a standard chromium release assay.

Series [2] has as its system DC2.4 A2/Kb cells pulsed with peptides. Kind of series: Identification of CTL epitope: chromium release with peptide pulsed DC2.4 A2/Kb cells. It counts as in vivo. As to conditions: HLA-A2/Kb transgenic mice.
Series [3] concerns T cells of immunized B6 mice. Kind of series: Proliferative T cell responses of immunized mice, thymidine incorporation assay. Type of series: in vivo. The conditions noted are these: for stimulation index (SI), proliferative T cell response: mice immunized with WT1 peptides, thymidine incorporation (FIGS. 5A-5C). Here is the method:
Peptides were dissolved in 1 ml sterile water for injection, and B6 mice were immunized 3 times at time intervals of three weeks. Adjuvants used were CFA/IFA, GM-CSF, and MONTANIDE®. […] In particular, lymphocytes were cultured in 96-well plates at 2×10^5 cells per well with 4×10^5 irradiated (3000 rads) syngeneic spleen cells and the designated peptide.
(In general: Dividing cells build labelled thymidine or BrdU into new DNA.)

Series [4] has as its system WT1-specific CD8+ T cell clone and T cell line. Kind of series: HLA-A2 peptide-MHC tetramer staining of WT1 specific T cells (flow cytometry). Type of series: cell-based, human.
In series [5] the test system is mouse B6 class I antigens (D^b or K^b molecules on the surface of RMA-S cells). Kind of series: Peptide binding to C57Bl/6 murine class I MHC using RMA-S cells (flow cytometry). Type of series: cell-based. The conditions noted are these: 9-mer peptides within p117-139.
Protocol: In brief, RMA-S cells were cultured for 7 hours at 26° C. in complete medium supplemented with 1% FCS. A total of 10^6 RMA-S cells were added into each well of a 24-well plate and incubated either alone or with the designated peptide (25 ug/ml) for 16 hours at 26° C. and additional 3 hours at 37° C. in complete medium. Cells were then washed three times and stained with fluorescein isothiocyanate-conjugated anti D^b or anti-K^b antibody (PharMingen, San Diego, Calif.). Labeled cells were washed twice, resuspended and fixed in 500 ul of PBS with 1% paraformaldehyde and analyzed for fluorescence intensity in a flow cytometer (Becton-Dickinson FACSCALIBUR™). The percentage of increase of D^b or K^b molecules on the surface of the RMA-S cells was measured by increased mean fluorescent intensity of cells incubated with peptide compared with that of cells incubated in medium alone.
In series [6] the test system is WT1 specific CD8+ T-cell clone. In words: IFN-γ ELISPOT recognition by human WT1 specific CD8+ T-cell clone (whole gene priming). Type of series: cell-based. The conditions noted are these: HLA-A2 restricted clone.
Series [7] is described as follows: Clinical chemistry and hematology analysis, WT1 dose titration study. It counts as in vivo. As to conditions: mice immunized with WT1 protein. The text has this:
Special emphasis was put on evaluation of potential hematopoietic toxicity.

Series [8] deals with human cells. Kind of series: Cellular cytotoxicity of WT1-ubiquitin fusion expressed in human cells. Type of series: cell-based. As to conditions: compared with native WT1. The text has this: The human ubiquitin open reading frame (SEQ ID NO:384) was mutated such that the nucleotides encoding the last amino acid encode an alanine instead of a glycine. […] The G->A mutation prevents co-translational cleavage of the […] protein by the proteases that normally process poly-ubiquitin during translation. The DNA and predicted amino acid sequence for the resulting construct are set forth in SEQ ID NOs:385 and 410, respectively. […] The resulting protein is predicted to be targeted to the proteosome by virtue of the added ubiquitin molecule.

Series [9] concerns CD4 cells of splenocytes. In words: Intracellular interferon-gamma staining of CD4 cells (FACS) after immunization with WT-1 protein constructs. It counts as in vivo. As to conditions: C57BL/6 mice. Here is the method:
Groups of four C57BL/6 mice were immunized subcutaneously with 20 μg WT-1 proteins: WT-1-F or WT-1 full length (FL), with Ra12, HIS or TAT fusions. Immunizations were performed at weeks 0, 3 and 9, and spleens were harvested at week 11. Splenocytes were then stimulated in vitro for 6 hours with medium alone, with a 15-mer peptide “p32” ([…], amino acids 125-139 of WT-1; found within the p117-139 peptide set forth in SEQ ID NO:2), with the DC2.4-WT-1/LAMP cell line, or with rRa12. CD4 cells were then stained for intracellular interferon-gamma and quantified by FACS analysis. A portion of these splenocytes were then stimulated in vitro for 8 days, after which CD4+ IFN+ cells were enumerated. After the 6 hour stimulation with p32, 0.33% of CD4-positive cells were positive for intracellular IFN-gamma staining in mice immunized with the truncated N-terminal construct rWT1-F-TAT. By contrast, only 0.10% of CD4-positive cells stained positive for intracellular IFN-gamma in mice immunized with rWT1-FL-TAT. […] By contrast, 0.24% of CD4-positive cells from mice immunized with the full-length WT1-TAT construct stained positive for intracellular IFN-gamma.

The values below come from patent US7915393B2 (Corixa Corporation, priority 2001, dated 2011).

Marks after values point to notes of the source that are not given here.

As for ALLPAVPSL, the “generation of peptide specific CTL following immunization” value (“generation” below) in series [1] is “peptide specific CTL lines were generated”. The “WT1 immunized animals with CTL responses to the peptide” value in series [2] is 4 of 5.

With CMTWNQMNL, the “lysis of WT1 positive tumor cells by peptide specific CTL” value in [1] is recorded as “failed to lyse cell lines that expressed WT1 proteins”. In series [1] (listed as p235-243), the “generation” value is “peptide specific CTL lines were generated”. For GATLKGVAAGSSSSVKWTE [p244-262], in series [3] (Vaccine A immunized mice, bulk lines, peptide 25 ug/ml, 96 hr (FIG. 6A)), the “stimulation indices (SI), proliferative T cell response to the immunizing peptides” value is reported as “No proliferative response”. As to LDFAPPGAS, the “staining of the WT1-specific CD8+ T cell clone by HLA-A2 tetramers incubated with an excess of the peptide” value (“staining … of the peptide” below) in series [4] is “did not stain the CD8+ T cell clone”. NAPYLPSCL: in series [5], the “binding to H-2^b class I molecules” value is “bind to H-2^b class I molecules”. Further, the “lysis of targets incubated with 9-mer peptide by CTL generated by immunization with p117-139” value in [1] (EL-4 pulsed with peptide, E:T 25:1 (FIG. 13A)) was “lysed targets”. The “peptide specific lysis after restimulation of the p117-139 specific CTL line with the 9-mer” value in [1] (FIGS. 13B and 13C) is listed as “demonstrated peptide specific lysis”. Moreover, in series [1], the “lysis of WT1 positive tumor cells by peptide specific CTL” value was “showed lysis of a WT1 positive tumor cell line”. As for NLYQMTSQL, in series [1], the “generation” value is given as “not”.

Turning to QWAPVLDFAPPGASA [peptide 9], the “recognition by WT1 specific CD8+ T-cell clone (ELISPOT)” value (shortened to “recognition”) in series [6] was “recognized”. As to RDLNALLPAVPSLGGGG [p6-22], the “stimulation index (SI), proliferative T cell response” value in [3] was found to be 2.3. Consider SCLESQPAI, for which the “generation” value in series [1] is recorded as “peptide specific CTL lines were generated”. Take VLDFAPPGA: the “recognition” value in [6] is “specifically recognized”. Further, the “staining … of the peptide” value in [4] is “specifically stained the CD8+ T cell clone”. On to VLDFAPPGAS, for which, in [6], the “recognition” value was “specifically recognized”. For VLDFAPPGASAYGSL [peptide 10], in series [6], the “recognition” value is on record as “recognized”.

Take VRRVSGVAPTLVRS [Peptide P299-313]: the “stimulation index (SI), proliferative T cell response” value in series [3] came out at 3.3. In the case of “WT1 p39-47: irrelevant HLA-A2 peptide used as tetramer control (DFAPPGASA; UniProt P19544 39-47, looked up, fragment)”, the “staining … of the peptide” value in [4] was “did not stain the CD8+ T cell clone”. “WT1 protein: WT1 protein used for immunization in a multiple dose titration in mice”: the “blood cell counts and blood chemistry (BUN, creatinine, bilirubin, albumin, globulin)” value in series [7] is given as “within the normal range”. Besides, the WT1-specific antibody response entry (MPL-SE as adjuvant, doses 25 μg, 100 μg to 1000 μg WT1 protein, female C57/B6 mice (FIG. 19)) was “strong WT1-specific antibody response”. The “cellular T-cell responses” value (MPL-SE as adjuvant, doses 25 μg, 100 μg to 1000 μg WT1 protein, female C57/B6 mice (FIG. 20)) was “cellular T-cell responses”. For the same substance, for the setting “mice immunized with WT1 protein”, the “myeloid/erythroid ratio in sternum and femur marrow” value is listed as “normal”. Also, the “systemic histopathological or toxicological effects of immunization” value (mice, multiple dose titration) was “No systemic histopathological or toxicological effects”. As for “WT1-Ubiquitin fusion: mutated (G->A) human ubiquitin fused upstream of a splice variant of human WT1”, the “cellular cytotoxicity when expressed in human cells” value in [8] is given as “decreased cellular cytotoxicity”.

Take “p136-144: 9-mer class I MHC binding peptide; human or mouse form not stated at this place (SCLESQPAI; UniProt P19544 136-144, looked up, fragment)”: in [1], the “generation” value is on record as “CTL were generated”. Regarding “rWT1-FL-TAT: full-length WT1 as TAT fusion”, the “CD4-positive cells positive for intracellular IFN-gamma staining” value in series [9] (20 μg s.c. weeks 0, 3 and 9, 6 hour stimulation with p32) is on record as 0.10%. Also, the “CD4+ cells with IFN-gamma staining” value in [9] (20 μg s.c., after the 8 day stimulation) is recorded as 0.24%.
